Laboratory results published in patent publication US7939554B2, “Protein phosphatase inhibitors” (The Cleveland Clinic Foundation, priority 2006, dated 2011).

Tests used:
recombinant SHP-1 = biological target: T1, recombinant SHP-1 (Homo sapiens, UniProt P29350); assay: rapid in vitro SHP-1 PTPase assay (DIFMUP fluorescence substrate); assay type: biochemical; settings: L5 and analogs, 1 μg/well; FIG. 12A
T1 construct: Recombinant protein of SHP-1 PTPase catalytic domain was described
T1 sequence (P29350 244-515 limits assumed): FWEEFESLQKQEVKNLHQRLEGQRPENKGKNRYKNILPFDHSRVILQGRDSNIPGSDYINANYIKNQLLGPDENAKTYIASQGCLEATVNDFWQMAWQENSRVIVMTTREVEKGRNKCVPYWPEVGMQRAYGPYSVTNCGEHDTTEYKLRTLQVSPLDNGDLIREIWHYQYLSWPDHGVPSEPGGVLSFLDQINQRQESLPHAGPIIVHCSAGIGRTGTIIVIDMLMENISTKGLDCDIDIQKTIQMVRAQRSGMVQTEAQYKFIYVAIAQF
Method: Recombinant protein of SHP-1 PTPase catalytic domain was described and stored in Tris buffer (25 mM Tris, pH7.5, 1 mM EDTA, 2 μM 2-ME, 25% glycerol) at −80° C. Fluorescence substrate DIFMUP (6,8-difluoro-4 methylumbelliferyl phosphate) was purchased (Molecular Probes). SSG was reported previously (21-23) and stored at 4° C. in darkness prior to use. Human and mouse IFNγ ELISPOT Kit (R & D System), CD4^+ Cell Intracellular IFNγ Detection Kit (BD Bioscience) and CD8^+ Cell Intracellular IFNγ Detection Kit (BD Bioscience) were purchased from commercial sources. Human Jurkat T cell line (26) and murine B16 melanoma cell line (ATCC) were maintained in […] culture medium supplemented with 10% fetal calf serum (FCS). Antibodies against pLck-pY394 (Cell Signaling), pLck-pY505 (Cell Signaling), pZap70 (pY319, BD Biosciences), pSlp76 (pY128, BD Biosciences) and pLat (pY226, BD Biosciences) were purchased from commercial sources.
A rapid SHP-1 PTPase assay was developed for screening the compounds in a commercial library of 34,000 drug-like small chemicals (Chembridge, Mass.). Briefly, compounds of the library (1 μg/well in […]) were placed in 96-well plates (Falcon, 353072) and mixed with recombinant SHP-1 protein (0.1 μg/well) in […] of HEPES buffer (50 mM HEPS, pH 7.5, 150 mM NaCl, 1 mM EDTA, 0.2 mM DTT and 0.1 mg/ml BSA). The plates were incubated at room temperature for 10 minutes prior to the addition of fluorescence substrate DIFMUP (40 μM stock in HEPES buffer, 10 μl/well) to initiate PTPase reaction. Upon completion of PTPase reaction at room temperature for 1 hr in darkness, fluorescence signal of individual wells were recorded using a Vector^2 Multilabel Counter (Vector, CA). They were compared to that of control SHP-1 PTPase reaction (˜10,000 units of fluorescence signal) in the absence of any compound (100%) for calculating relative SHP-1 inhibition induced by the compounds after subtracting the background signal (˜500 units of fluorescence signal) of the substrate.
To evaluate their SHP-1 inhibitory activity, the analogs (1 μg/well in 0.2 μl DMSO) were aliquot individually to 96-well plates (Falcon, 353072) and mixed with recombinant SHP-1 protein (0.1 μg/well) in 90 μl of HEPES buffer (50 mM HEPS, pH 7.5, 150 mM NaCl, 1 mM EDTA, 0.2 mM DTT and 0.1 mg/ml BSA). The plates were incubated at room temperature for 10 minutes prior to the addition of fluorescence substrate DIFMUP (40 μM stock in HEPES buffer, 10 μl/well) to initiate PTPase reaction. Upon completion of PTPase reaction at room temperature for 1 hr in darkness, fluorescence signal of individual wells were recorded using a Vector^2 Multilabel Counter (Vector, CA). […]

[1] = test system: spleen pLck and IFNγ+ cells; assay: in vivo induction of spleen pLck and IFNγ+ cells in mice; parameters: species or system mouse
Method: (§1) Spleens were harvested one hour post-treatment on day 4 and processed into splenocytes, which were used for assessing pLck levels by SDS-PAGE/Western blotting and for quantification of IFNγ+ cells by ELISPOT assays. Mice were also treated with L5 (˜10 mg/kg body weight, daily, s. c., n=2) to evaluate the toxicity of the compounds in vivo.

human peripheral blood = assay: induction of IFNγ+ cells in human peripheral blood in vitro (ELISPOT); assay type: cell-based
Method: For induction of human primary IFNγ+ cells, heparinized peripheral blood samples were obtained by vein-puncture from healthy volunteers following an established protocol approved by the Institutional Review Board (IRB) of Cleveland Clinic. To mimic in vivo drug-exposure, human peripheral blood samples were directly treated with different agents without pre-separation of white blood cells from other blood components. Blood samples (0.1 ml/sample) were mixed with the agents, incubated at 37° C. for 4 hrs, diluted with 5 volumes of hypotonic solution (10 mM Tris, pH 7.4; 10 mM NaCl) to lyse RBC and centrifuged to pellet WBCs. The pellets were washed with hypotonic solution one time, re-suspended in RPMI 1640 medium (10% FCS) and used for ELISPOT assays (Human IFNγ ELISPOT Kit, R & D System) to quantify human IFNγα cells as outlined above.

[2] = toxicity in mice (viability); assay type: in vivo, mouse; settings: 10 mg/kg, daily, s.c., two weeks
Method: FIG. 3 illustrates differential toxicity of L5 and L6. Jurkat cells were cultured in the absence or presence of lead compound #5 (L5) (A) or #6 (L6) (B) for 6 days prior to quantification of cell growth by MTT assays. Data represent mean±SD of triplicate samples. Balb/c mice were treated with L5 (˜10 mg/kg body weight, s. c., daily, M-F/wk) for two weeks to assess its toxicity in vivo (C).
as §1

[3] = ~3 mg/kg body weight, s.c., daily, 4 days

Method for B16 melanoma tumors: Tumor volume (n=5) was measured during the study period and calculated using the formula for a prolate spheroid. Student's t test was used for assessing the significance of tumor volume differences among differential treatment groups. Mouse viability (daily) and body weights (weekly) were also recorded during the study period. Major internal organs of the mice were inspected visually upon their termination at the end of the experiment.
To assess anti-tumor activity, C57BL/6J mice (˜8-week old, female, Taconic Farms, Germantown, N.Y.) were inoculated (s. c.) at the flanks with B16 melanoma cells (4×10^4 cells/site). […] Tumor volume (n=5) was measured during the study period and calculated using the formula for a prolate spheroid. Student's t test was used for assessing the significance of tumor volume differences among differential treatment groups. Mouse viability (daily) and body weights (weekly) were also recorded during the study period. Major internal organs of the mice were inspected visually upon their termination at the end of the experiment.

O=C1C=CC(=O)C(c2cc(Cl)ccc2Cl)=C1 [L5]
B16 tumor growth inhibition versus control (B16 melanoma tumors; 1 mg/kg/daily, M-F/wk, oral, day 22): ~9% | growth inhibition of B16 tumors versus control (B16 melanoma tumors; 3 mg/kg/day, oral, M-F/week, end of study): ~83% | tolerance of treated tumor mice (behavior, gross anatomy) (B16 melanoma tumors; mouse, in vivo): no apparent abnormality | inhibition of phosphatase activity of recombinant SHP-1 (recombinant SHP-1): completely or almost completely inhibited | effect on splenocyte pLck in treated mice ([1]; 1 mg/kg of body weight): minor effect | spleen IFNγ+ cells increase in treated mice [1, 3]: approximately 3 fold | splenocyte pLck increase in treated mice [1, 3]: ~3.3 fold | maximal induction of IFNγ+ cells in human peripheral blood (human peripheral blood; 8 μg/ml): 20 fold | effectiveness relative to SSG in inducing IFNγ+ cells (human peripheral blood; maximal induction at a comparable dose, human peripheral blood): ~20 fold | mouse viability [2]: all alive
